In general, IC50 refers to the concentration that inhibits the measured activity by half.

The results in this text go back to patent US7473790B2 (Pfizer Inc., priority 2003, dated 2009).

The target of the test is T1, HCV polymerase (Hepatitis C virus genotype 1b, UniProt P26663).
T1 construct: 2.5 pmoles (0.15 μg) HCV polymerase protein in a final volume of 75 μL
T1 sequence (P26663 2420-3010): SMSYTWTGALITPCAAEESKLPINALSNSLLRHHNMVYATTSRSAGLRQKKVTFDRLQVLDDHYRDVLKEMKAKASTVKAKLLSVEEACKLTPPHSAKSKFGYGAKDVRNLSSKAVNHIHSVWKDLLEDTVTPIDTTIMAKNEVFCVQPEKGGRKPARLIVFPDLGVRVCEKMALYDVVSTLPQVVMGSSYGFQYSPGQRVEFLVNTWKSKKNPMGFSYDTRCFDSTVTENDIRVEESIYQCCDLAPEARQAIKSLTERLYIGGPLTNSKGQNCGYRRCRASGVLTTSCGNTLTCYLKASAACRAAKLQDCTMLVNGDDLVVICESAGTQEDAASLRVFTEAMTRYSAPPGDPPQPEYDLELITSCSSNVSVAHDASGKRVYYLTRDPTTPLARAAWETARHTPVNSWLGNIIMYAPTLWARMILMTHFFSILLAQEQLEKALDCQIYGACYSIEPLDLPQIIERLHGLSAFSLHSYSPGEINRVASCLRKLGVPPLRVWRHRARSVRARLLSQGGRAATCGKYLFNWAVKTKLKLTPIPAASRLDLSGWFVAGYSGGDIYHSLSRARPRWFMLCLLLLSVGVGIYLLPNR
Put plainly: HCV polymerase primer/template-directed transcription assay (32P-GTP incorporation, filter binding). The format is biochemical. Conditions: recombinant HCV polymerase; 30 minutes at 30° C.; concentration giving 50% inhibition of polymerase-directed transcription; read-out: IC50. The procedure, abridged:
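IC50s come from triplicate cpm, refit with an enzyme-concentration (30 nM) correction when under 200 nM. Reactions ran 30 min at 30° C in Tris pH 7.2 with MgCl2, 1 μM GTP spiked with α-32P-GTP, biotin-dG12 primer and poly(rC)300 template, with 1% DMSO. Incorporated label was collected on DE filtermats and counted.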
In the case of `CCc1cc(CCC2(C3CCCC3)CC(=O)CC(=O)O2)ccc1OCCO` (centres unmarked) [A(128), 6-Cyclopentyl-6-{2-[3-ethyl-4-(2-hydroxy-ethoxy)-phenyl]-ethyl}-dihydro-pyran-2,4-dione], the IC50 came out at 490 nM. To `O=C1CC(=O)OC(CCc2ccc(O)c(F)c2)(C2CCCC2)C1` (centres unmarked) [A(129), 6-Cyclopentyl-6-[2-(3-fluoro-4-hydroxy-phenyl)-ethyl]-dihydro-pyran-2,4-dione] belongs 8900 nM; to `COc1ccc(CCC2(C3CCCC3)CC(=O)CC(=O)O2)cc1C1CC1` (centres unmarked) [A(130), 6-Cyclopentyl-6-[2-(3-cyclopropyl-4-methoxy-phenyl)-ethyl]-dihydro-pyran-2,4-dione], 1300 nM; to `Cc1cc(C)n2nc(CC3=C(O)CC(CCc4ccc(N(C)S(C)(=O)=O)c(F)c4)(C4CCCC4)OC3=O)nc2n1` (centres unmarked) [A(131), 6-cyclopentyl-3-[(5,7-dimethyl[1,2,4]triazolo[1,5-a]pyrimidin-2-yl)methyl]-6-[2-(3-fluoro-4-{methyl[methyl(dimethylene)-I^6-sulfanyl]amino}phenyl)ethyl]-4-hydroxy-5,6-dihydro-2H-pyran-2-one], 137 nM. With `CN(c1ccc(CCC2(C3CCCC3)CC(=O)CC(=O)O2)cc1F)S(C)(=O)=O` (centres unmarked) [A(132), 6-cyclopentyl-6-[2-(3-fluoro-4-{methyl[methyl(dimethylene)-6-sulfanyl]amino}phenyl)ethyl]dihydro-2H-pyran-2,4(3H)-dione] the figure was 13000 nM. With `Cc1cc(C)n2nc(CC3=C(O)CC(CCc4ccc(N(C)S(C)(=O)=O)cc4)(C4CCCC4)OC3=O)nc2n1` (centres unmarked) [A(133), 6-cyclopentyl-3-[(5,7-dimethyl[1,2,4]triazolo[1,5-a]pyrimidin-2-yl)methyl]-4-hydroxy-6-[2-(4-{methyl[methyl(dimethylene)-I^6-sulfanyl]amino}phenyl)ethyl]-5,6-dihydro-2H-pyran-2-one] the figure was 72 nM; with `O=C1CC(=O)OC(CCc2ccc(N3CCCS3(=O)=O)c(F)c2)(C2CCCC2)C1` (centres unmarked) [A(134), 6-cyclopentyl-6-{2-[4-(1,1-dioxidoisothiazolidin-2-yl)-3-fluorophenyl]ethyl}dihydro-2H-pyran-2,4(3H)-dione], 38000 nM. Take `Cc1cc(C)n2nc(CC3=C(O)CC(CCc4ccc(O)c(C5CCCC5)c4)(C4CCCC4)OC3=O)nc2n1` (centres unmarked) [A(135), 6-cyclopentyl-6-[2-(3-cyclopentyl-4-hydroxyphenyl)ethyl]-3-[(5,7-dimethyl[1,2,4]triazolo[1,5-a]pyrimidin-2-yl)methyl]-4-hydroxy-5,6-dihydro-2H-pyran-2-one]: the IC50 stood at 15 nM. To `CCCc1cc(CCC2(C3CCCC3)CC(O)=C(Cc3nc4nc(C)cc(C)n4n3)C(=O)O2)ccc1O` (centres unmarked) [A(136), 6-cyclopentyl-3-[(5,7-dimethyl[1,2,4]triazolo[1,5-a]pyrimidin-2-yl)methyl]-4-hydroxy-6-[2-(4-hydroxy-3-propylphenyl)ethyl]-5,6-dihydro-2H-pyran-2-one] belongs 2 nM; to `CCCc1cc(CCC2(C3CCCC3)CC(O)=C(Cc3nc4nc(CC)cc(CC)n4n3)C(=O)O2)ccc1O` (centres unmarked) [A(137), 6-cyclopentyl-3-[(5,7-dietylphenyl)ethyl]-5,6-hyl[1,2,4]triazolo[1,5-a]pyrimidin-2-yl)methyl]-4-hydroxy-6-[2-(4-hydroxy-3-propdihydro-2H-pyran-2-one], 7 nM; to `CCc1cc(CC)n2nc(CC3C(=O)CC(CCc4ccc(O)c(CC)c4)(C4CCCC4)OC3=O)nc2n1` (centres unmarked) [A(138), 6-cyclopentyl-3-[(5,7-diethyl[1,2,4]triazolo[1,5-a]pyrimidin-2-yl)methyl]-6-[2-(3-ethyl-4-hydroxyphenyl)ethyl]-4-hydroxy-5,6-dihydro-2H-pyran-2-one], 8 nM. Take `CCc1cc(CCC2(C3CCCC3)CC(O)=C(Cc3nc4nc(C)cc(C)n4n3)C(=O)O2)ccc1OCCNC(C)=O` (centres unmarked) [A(139), N-{2-[4-(2-{2-cyclopentyl-5-[(5,7-dimethyl[1,2,4]triazolo[1,5-a]pyrimidin-2-yl)methyl]-4-hydroxy-6-oxo-3,6-dihydro-2H-pyran-2-yl}ethyl)-2-ethylphenoxy]ethyl}acetamide]: the IC50 was found to be 2 nM. In the case of `CC(C)(C#N)c1c(F)cc(CCC2(C3CCCC3)CC(O)=C(Cc3nc4ncc(Cl)cn4n3)C(=O)O2)cc1F` (centres unmarked) [A(142)], the IC50 was 4 nM. To `Cc1cnc2nc(CC3=C(O)CC(CCc4cc(F)c(C(C)(C)C#N)c(F)c4)(C4CCCC4)OC3=O)nn2c1` (centres unmarked) [A(143), 2-(4-{2-[2-Cyclopentyl-4-hydroxy-5-(6-methyl-[1,2,4]triazolo[1,5-a]pyrimidin-2-ylmethyl)-6-oxo-3,6-dihydro-2H-pyran-2-yl]-ethyl}-2,6-difluoro-phenyl)-2-methyl-propionitrile] belongs 9 nM.

Turning to `CC(C)(C#N)c1c(F)cc(CCC2(C3CCCC3)CC(O)=C(Cc3nc4ncccn4n3)C(=O)O2)cc1F` (centres unmarked) [A(144), 2-{4-[2-(2-Cyclopentyl-4-hydroxy-6-oxo-5-[1,2,4]triazolo[1,5-a]pyrimidin-2-ylmethyl-3,6-dihydro-2H-pyran-2-yl)-ethyl]-2,6-difluoro-phenyl}-2-methyl-propionitrile], the IC50 stood at 11 nM.

As to `COC1=CC(=O)OC(CCc2ccc(C(C)(C)C#N)c(F)c2)(C2CCCC2)C1` (centres unmarked) [A(145), 2-{4-[2-(2-Cyclopentyl-4-methoxy-6-oxo-3,6-dihydro-2H-pyran-2-yl)-ethyl]-2-fluoro-phenyl}-2-methyl-propionitrile], the half-inhibitory concentration (IC50) stood at 3900 nM. To `Cc1cc(C)n2nc(CC3=C(O)CC(CCc4ccc(C(C)(C)C#N)c(Cl)c4)(C4CCCC4)OC3=O)nc2n1` (centres unmarked) [A(146), 2-(2-Chloro-4-{2-[2-cyclopentyl-5-(5,7-dimethyl-[1,2,4]triazolo[1,5-a]pyrimidin-2-ylmethyl)-4-hydroxy-6-oxo-3,6-dihydro-2H-pyran-2-yl]-ethyl}-phenyl)-2-methyl-propionitrile] belongs 2 nM; to `CC(C)(C#N)c1ccc(CCC2(C3CCCC3)CC(=O)CC(=O)O2)cc1Cl` (centres unmarked) [A(147), 2-{2-Chloro-4-[2-(2-cyclopentyl-4,6-dioxo-tetrahydro-pyran-2-yl)-ethyl]-phenyl}-2-methyl-propionitrile], 1400 nM. With `Cc1cc(C)n2nc(CC3=C(O)CC(CCc4ccc(C5(C#N)CC5)c(Cl)c4)(C4CCCC4)OC3=O)nc2n1` (centres unmarked) [A(148), 1-(2-Chloro-4-{2-[2-cyclopentyl-5-(5,7-dimethyl-[1,2,4]triazolo[1,5-a]pyrimidin-2-ylmethyl)-4-hydroxy-6-oxo-3,6-dihydro-2H-pyran-2-yl]-ethyl}-phenyl)-cyclopropanecarbonitrile] the figure was 5 nM.

`N#CC1(c2ccc(CCC3(C4CCCC4)CC(=O)CC(=O)O3)cc2Cl)CC1` (centres unmarked) [A(149), 1-{2-Chloro-4-[2-(2-cyclopentyl-4,6-dioxo-tetrahydro-pyran-2-yl)-ethyl]-phenyl}-cyclopropanecarbonitrile]: the IC50 worked out at 3900 nM. On to `CCc1cc(CCC2(C3CCCC3)CC(O)=C(Cc3nc4nc(C)cc(C)n4n3)C(=O)O2)c(OC)cc1O` (centres unmarked) [A(150), 6-Cyclopentyl-3-(5,7-dimethyl-[1,2,4]triazolo[1,5-a]pyrimidin-2-ylmethyl)-6-[2-(5-ethyl-4-hydroxy-2-methoxy-phenyl)-ethyl]-4-hydroxy-5,6-dihydro-pyran-2-one], for which the IC50 came out at 7 nM.

For `CCc1cc(CCC2(C3CCCC3)CC(=O)CC(=O)O2)c(OC)cc1O` (centres unmarked) [A(151), 6-Cyclopentyl-6-[2-(5-ethyl-4-hydroxy-2-methoxy-phenyl)-ethyl]-dihydro-pyran-2,4-dione], the IC50 was 300 nM. Regarding `CCc1cc(CCC2(C3CCCC3)CC(O)=C(Cc3nc[nH]c3C)C(=O)O2)c(OC)cc1O` (centres unmarked) [A(156), 6-Cyclopentyl-6-[2-(5-ethyl-4-hydroxy-2-methoxy-phenyl)-ethyl]-4-hydroxy-3-(5-methyl-1H-imidazol-4-ylmethyl)-5,6-dihydro-pyran-2-one], the IC50 was determined as 21 nM.

As to `CCc1nc(CC2=C(O)CC(CCc3cc(CC)c(O)cc3OC)(C3CCCC3)OC2=O)c(C)[nH]1` (centres unmarked) [A(157), 6-Cyclopentyl-6-[2-(5-ethyl-4-hydroxy-2-methoxy-phenyl)-ethyl]-3-(2-ethyl-5-methyl-1H-imidazol-4-ylmethyl)-4-hydroxy-5,6-dihydro-pyran-2-one], the IC50 came out at 65 nM.

On to `CCc1cc(CCC2(C3CCCC3)CC(O)=C(Cc3nc4ncc(Cl)cn4n3)C(=O)O2)c(C)cc1O` (centres unmarked) [A(160), 3-(6-Chloro-[1,2,4]triazolo[1,5-a]pyrimidin-2-ylmethyl)-6-cyclopentyl-6-[2-(5-ethyl-4-hydroxy-2-methyl-phenyl)-ethyl]-4-hydroxy-5,6-dihydro-pyran-2-one], for which the IC50 came out at 29 nM. With `CCc1cc(CCC2(C3CCCC3)CC(O)=C(Cc3nc4ncc(Cl)cn4n3)C(=O)O2)c(F)cc1O` (centres unmarked) [A(161), 3-(6-Chloro-[1,2,4]triazolo[1,5-a]pyrimidin-2-ylmethyl)-6-cyclopentyl-6-[2-(5-ethyl-2-fluoro-4-hydroxy-phenyl)-ethyl]-4-hydroxy-5,6-dihydro-pyran-2-one] the figure was 8 nM; with `CCc1cc(CCC2(C3CCCC3)CC(O)=C(Cc3nc4nc(C)cc(C)n4n3)C(=O)O2)ccn1` (centres unmarked) [A(162), 6-Cyclopentyl-3-(5,7-dimethyl-[1,2,4]triazolo[1,5-a]pyrimidin-2-ylmethyl)-6-[2-(2-ethyl-pyridin-4-yl)-ethyl]-4-hydroxy-5,6-dihydro-pyran-2-one], 10 nM; with `CCc1cc(CCC2(C3CCCC3)CC(=O)CC(=O)O2)ccn1` (centres unmarked) [A(163), 6-Cyclopentyl-6-[2-(2-ethyl-pyridin-4-yl)-ethyl]-dihydro-pyran-2,4-dione], 1900 nM. To `CCc1cc(CCC2(C3CCCC3)CC(O)=C(Cc3nc4ncc(Cl)cn4n3)C(=O)O2)ccn1` (centres unmarked) [A(164), 3-(6-Chloro-[1,2,4]triazolo[1,5-a]pyrimidin-2-ylmethyl)-6-cyclopentyl-6-[2-(2-ethyl-pyridin-4-yl)-ethyl]-4-hydroxy-5,6-dihydro-pyran-2-one] belongs 42 nM.
